From patent US10233173B2, “Substituted 1,2,3-triazoles as NR2B-selective NMDA modulators” (JANSSEN PHARMACEUTICA NV, priority 2016, dated 2019)
One block for each compound: values may come before it.

Molecular target: human GluN1/GluN2B NMDA receptors (Homo sapiens, UniProt Q05586+Q13224)
Test: Cell-based calcium flux (FLIPR) assay on cloned human NR1/NR2B ion channels expressed in mammalian cells
Details: standard assay
How it was run: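 Calcium influx followed by FLIPR fluorescence after 5 min compound exposure and a further 5 min co-agonist challenge: 10 μM glycine with glutamate at ~EC80 (standard) or EC40 (HTS).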

[1] = glutamate at ~EC80, FLIPR calcium flux
[2] = human GluN1/GluN2B, calcium flux (FLIPR), glutamate ~EC80

Chain of human GluN1/GluN2B NMDA receptors (Q13224 27-1484, other chains not shown): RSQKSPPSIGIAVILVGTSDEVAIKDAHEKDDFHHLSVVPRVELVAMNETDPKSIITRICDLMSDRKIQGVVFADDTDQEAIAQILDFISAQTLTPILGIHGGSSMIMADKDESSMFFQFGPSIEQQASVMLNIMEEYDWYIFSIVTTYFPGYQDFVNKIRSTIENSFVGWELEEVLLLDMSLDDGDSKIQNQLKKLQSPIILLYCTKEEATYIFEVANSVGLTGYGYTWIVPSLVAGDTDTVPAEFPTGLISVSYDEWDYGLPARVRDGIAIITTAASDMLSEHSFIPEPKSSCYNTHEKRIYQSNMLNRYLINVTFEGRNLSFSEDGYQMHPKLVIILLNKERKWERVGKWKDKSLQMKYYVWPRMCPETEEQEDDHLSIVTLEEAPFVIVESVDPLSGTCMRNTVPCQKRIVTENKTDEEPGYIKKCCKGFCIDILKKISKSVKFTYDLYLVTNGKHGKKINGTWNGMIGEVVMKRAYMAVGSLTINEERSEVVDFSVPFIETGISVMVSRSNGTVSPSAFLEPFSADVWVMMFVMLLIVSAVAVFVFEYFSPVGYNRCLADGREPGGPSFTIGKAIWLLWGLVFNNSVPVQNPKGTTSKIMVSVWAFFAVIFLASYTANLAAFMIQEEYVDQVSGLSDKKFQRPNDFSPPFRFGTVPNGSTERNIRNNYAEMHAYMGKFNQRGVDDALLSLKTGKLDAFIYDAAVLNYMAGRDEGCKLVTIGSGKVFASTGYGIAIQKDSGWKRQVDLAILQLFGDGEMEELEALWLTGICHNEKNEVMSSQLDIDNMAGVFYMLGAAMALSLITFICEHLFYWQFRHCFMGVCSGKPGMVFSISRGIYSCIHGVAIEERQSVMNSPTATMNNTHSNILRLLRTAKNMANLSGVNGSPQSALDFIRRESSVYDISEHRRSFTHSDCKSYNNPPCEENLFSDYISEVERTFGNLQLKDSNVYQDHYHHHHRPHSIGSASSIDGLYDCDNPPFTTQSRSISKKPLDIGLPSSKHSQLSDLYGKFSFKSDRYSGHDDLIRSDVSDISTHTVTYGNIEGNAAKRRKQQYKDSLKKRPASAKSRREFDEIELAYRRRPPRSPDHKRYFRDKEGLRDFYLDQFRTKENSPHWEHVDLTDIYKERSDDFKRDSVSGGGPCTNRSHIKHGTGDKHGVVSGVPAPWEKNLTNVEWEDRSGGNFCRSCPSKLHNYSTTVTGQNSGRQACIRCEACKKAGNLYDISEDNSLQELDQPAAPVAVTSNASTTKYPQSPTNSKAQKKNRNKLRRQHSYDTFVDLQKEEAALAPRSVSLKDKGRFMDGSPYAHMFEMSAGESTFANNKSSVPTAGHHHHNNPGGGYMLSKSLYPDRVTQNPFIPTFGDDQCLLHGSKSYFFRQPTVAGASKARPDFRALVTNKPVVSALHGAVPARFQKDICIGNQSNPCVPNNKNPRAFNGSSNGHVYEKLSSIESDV

Compound: Fc1ccc(-n2cc(COc3nccc(NC4COC4)n3)nn2)cc1OC(F)F [Example 671, 2-((1-(3-(Difluoromethoxy)-4-fluorophenyl)-1H-1,2,3-triazol-4-yl)methoxy)-N-(oxetan-3-yl)pyrimidin-4-amine]
IC50 [1]: 0.126 µM

IC50 [1]: 0.068 µM
Compound: CC(C)(O)c1cnc(OCc2cn(-c3ccc(F)c(OC(F)F)c3)nn2)nc1 [Example 500, 2-[2-[[1-[3-(Difluoromethoxy)-4-fluoro-phenyl]triazol-4-yl]methoxy]pyrimidin-5-yl]propan-2-ol]

Compound: COc1cnc(OCc2cn(-c3cccc(C(C)(F)F)c3)nn2)nc1 [Example 306, 2-[[1-[3-(1,1-Difluoroethyl)phenyl]triazol-4-yl]methoxy]-5-methoxy-pyrimidine]
IC50 [2]: 0.003 µM

Compound: CCc1ccnc(OCc2cn(-c3ccc(F)c(OC(F)F)c3)nn2)n1 [Example 495, 2-f[[1-[3-(Difluoromethoxy)-4-fluoro-phenyl]triazol-4-yl]methoxy]-4-ethyl-pyrimidine]
IC50 [1]: 0.01 µM

IC50 [2]: 0.028 µM
Compound: Cc1cnc(OC(C)c2cn(-c3ccc(Cl)c(OC(F)F)c3)nn2)nc1 (racemic) [Example 56, (R/S)-2-[1-[1-[4-Chloro-3-(difluoromethoxy)phenyl]triazol-4-yl]ethoxy]-5-methyl-pyrimidine]

Compound: Cc1c(F)ccc(-n2cc(COc3ncc(Cl)cn3)nn2)c1F [Example 37, 5-Chloro-2-[[1-(2,4-difluoro-3-methyl-phenyl)triazol-4-yl]methoxy]pyrimidine]
IC50 [2]: 0.053 µM

Compound: FC(F)(F)c1cnc(OCc2cn(-c3ccc(Cl)cc3)nn2)nc1 [Example 226, 2-[[1-(4-Chlorophenyl)triazol-4-yl]methoxy]-5-(trifluoromethyl)pyrimidine]
IC50 [2]: 0.155 µM

Compound: Cc1cnc(OCc2cn(-c3cc(F)ccc3F)nn2)nc1 [Example 603, 2-[[1-(2,5-Difluorophenyl)triazol-4-yl]methoxy]-5-methyl-pyrimidine]
IC50 [1]: 10.4 µM

Compound: CC(F)(F)c1cccc(-n2cc(COc3ncccn3)nn2)c1 [Example 292, 2-[[1-[3-(1,1-Difluoroethyl)phenyl]triazol-4-yl]methoxy]pyrimidine]
IC50 [2]: 0.105 µM

Compound: Cc1cnc(OCc2cn(-c3cccc(C(C)(F)F)c3)nn2)nc1 [Example 297, 2-[[1-[3-(1,1-Difluoroethyl)phenyl]triazol-4-yl]methoxy]-5-methyl-pyrimidine]
IC50 [2]: 0.005 µM

Compound: Fc1ccc(-n2cc(COc3nccc(N4CC(F)(F)C4)n3)nn2)cc1OC(F)F [Example 511, 4-(3,3-Difluoroazetidin-1-yl)-2-[[1-[3-(difluoromethoxy)-4-fluoro-phenyl]triazol-4-yl]methoxy]pyrimidine]
IC50 [1]: 0.041 µM

Compound: COc1cc(Cl)cnc1OCc1cn(-c2ccc(Cl)c(OC(F)F)c2)nn1 [Example 106, 5-Chloro-2-[[1-[4-chloro-3-(difluoromethoxy)phenyl]triazol-4-yl]methoxy]-3-methoxy-pyridine]
IC50 [2]: 0.276 µM

Compound: CC(C)c1cc(-n2cc(COc3ncc(C(C)(C)O)cn3)nn2)ccc1F [Example 179, 2-[2-[[1-(4-Fluoro-3-isopropyl-phenyl)triazol-4-yl]methoxy]pyrimidin-5-yl]propan-2-ol]
IC50 [2]: 0.029 µM

Compound: Cc1cccc(-n2cc(COc3ncc(Cl)c(C)n3)nn2)c1 [Example 253, 5-Chloro-4-methyl-2-[[1-(m-tolyl)triazol-4-yl]methoxy]pyrimidine]
IC50 [2]: 0.007 µM

Compound: Cc1ccnc(OCc2cn(-c3ccc(C)c(OC(F)F)c3)nn2)n1 [Example 523, 2-[[1-[3-(Difluoromethoxy)-4-methyl-phenyl]triazol-4-yl]methoxy]-4-methyl-pyrimidine]
IC50 [1]: 0.114 µM

Compound: Cc1ccc(-n2cc(COc3ncc(C(C)(C)O)cn3)nn2)cc1OC(F)F [Example 526, 2-[2-[[1-[3-(Difluoromethoxy)-4-methyl-phenyl]triazol-4-yl]methoxy]pyrimidin-5-yl]propan-2-ol]
IC50 [1]: 0.425 µM

Compound: FC(F)(F)Oc1ccc(-n2cc(COc3ncc(Cl)cn3)nn2)cc1 [Example 338, 5-Chloro-2-[[1-[4-(trifluoromethoxy)phenyl]triazol-4-yl]methoxy]pyrimidine]
IC50 [2]: 9.05 µM

Compound: Cc1cnc(OCc2cn(-c3ccc4c(c3)CCC4)nn2)nc1 [Example 366, 2-[(1-Indan-5-yltriazol-4-yl)methoxy]-5-methyl-pyrimidine]
IC50 [2]: 0.02 µM

Compound: CC(C)(O)c1ccc(OCc2cn(-c3ccc(F)c(C(F)(F)F)c3)nn2)nc1 [Example 433, 2-[6-[[1-[4-Fluoro-3-(trifluoromethyl)phenyl]triazol-4-yl]methoxy]-3-pyridyl]propan-2-ol]
IC50 [1]: 1.11 µM

Compound: Cc1cnc(OCc2cn(-c3ccc(F)c(C(C)(F)F)c3)nn2)nc1 [Example 77, 2-[[1-[3-(1,1-Difluoroethyl)-4-fluoro-phenyl]triazol-4-yl]methoxy]-5-methyl-pyrimidine]
IC50 [2]: 0.004 µM

Compound: COc1nc(OCc2cn(-c3ccc(F)c(C(F)F)c3)nn2)ncc1C [Example 411, 2-[[1-[3-(Difluoromethyl)-4-fluoro-phenyl]triazol-4-yl]methoxy]-4-methoxy-5-methyl-pyrimidine]
IC50 [1]: 0.021 µM

Compound: CCc1cnc(NCc2cn(-c3ccc(F)c(C(C)(F)F)c3)nn2)nc1 [Example 207, N-[[1-[3-(1,1-Difluoroethyl)-4-fluoro-phenyl]triazol-4-yl]methyl]-5-ethyl-pyrimidin-2-amine]
IC50 [2]: 0.128 µM

Compound: Cc1cccc(-n2cc(COc3ncc(C(F)(F)F)cn3)nn2)c1F [Example 469, 2-[[1-(2-Fluoro-3-methyl-phenyl)triazol-4-yl]methoxy]-5-(trifluoromethyl)pyrimidine]
IC50 [1]: 1.06 µM

Compound: Cc1cccc(-n2cc(COc3ncc(OC(F)F)cn3)nn2)c1F [Example 471, 5-(Difluoromethoxy)-2-[[1-(2-fluoro-3-methyl-phenyl)triazol-4-yl]methoxy]pyrimidine]
IC50 [1]: 1.73 µM

Compound: CN(C)c1ccnc(OCc2cn(-c3ccc(F)c(C(F)F)c3)nn2)n1 [Example 415, 2-[[1-[3-(Difluoromethyl)-4-fluoro-phenyl]triazol-4-yl]methoxy]-N,N-dimethyl-pyrimidin-4-amine]
IC50 [1]: 0.008 µM

Compound: Cc1cnc(OCc2cn(-c3cccc(OC(F)F)c3)nn2)nc1 [Example 327, 2-[[1-[3-(Difluoromethoxy)phenyl]triazol-4-yl]methoxy]-5-methyl-pyrimidine]
IC50 [2]: 0.015 µM

Compound: Fc1cccc(OCc2cn(-c3ccc(Cl)c(OC(F)F)c3)nn2)n1 [Example 394, 2-[[1-[4-Chloro-3-(difluoromethoxy)phenyl]triazol-4-yl]methoxy]-6-fluoro-pyridine]
IC50 [1]: 0.437 µM

Compound: Cc1c(F)ccc(-n2cc(COc3ncc(C(F)(F)F)cn3)nn2)c1F [Example 643, 2-[[1-(2,4-Difluoro-3-methyl-phenyl)triazol-4-yl]methoxy]-5-(trifluoromethyl)pyrimidine]
IC50 [1]: 0.2 µM

Compound: CC(F)(F)c1cc(-n2cc(COc3ncc(C(F)F)cn3)nn2)ccc1Cl [Example 535, 2-[[1-[4-Chloro-3-(1,1-difluoroethyl)phenyl]triazol-4-yl]methoxy]-5-(difluoromethyl)pyrimidine]
IC50 [1]: 0.009 µM

Compound: Cc1cnc(OCc2cn(-c3ccc4c(c3)OC(F)(F)O4)nn2)nc1C [Example 359, 2-[[1-(2,2-Difluoro-1,3-benzodioxol-5-yl)triazol-4-yl]methoxy]-4,5-dimethyl-pyrimidine]
IC50 [2]: 0.009 µM

Compound: Cc1cnc(OCc2cn(-c3ccc(Cl)c(C(C)(F)F)c3)nn2)nc1 [Example 530, 2-[[1-[4-Chloro-3-(1,1-difluoroethyl)phenyl]triazol-4-yl]methoxy]-5-methyl-pyrimidine]
IC50 [1]: 0.005 µM

Compound: Cc1c(F)ccc(-n2cc(COc3nccc(C(C)C)n3)nn2)c1F [Example 640, 2-[[1-(2,4-Difluoro-3-methyl-phenyl)triazol-4-yl]methoxy]-4-isopropyl-pyrimidine]
IC50 [1]: 1.98 µM

Compound: CCc1cnc(OCc2cn(-c3ccc(F)c(F)c3)nn2)nc1 [Example 602, 2-[[1-(3,4-Difluorophenyl)triazol-4-yl]methoxy]-5-ethyl-pyrimidine]
IC50 [1]: 0.023 µM

Compound: Fc1ccc(-n2cc(COc3ncc(C(F)(F)F)cn3)nn2)cc1OC(F)F [Example 62, 2-[[1-[3-(Difluoromethoxy)-4-fluoro-phenyl]triazol-4-yl]methoxy]-5-(trifluoromethyl)pyrimidine]
IC50 [2]: 0.007 µM

IC50 [1]: 0.016 µM
Compound: COCc1ccnc(OCc2cn(-c3ccc(F)c(OC(F)F)c3)nn2)n1 [Example 499, 2-[[1-[3-(Difluoromethoxy)-4-fluoro-phenyl]triazol-4-yl]methoxy]-4-(methoxymethyl)pyrimidine]

Compound: COc1cnc(OCc2cn(-c3ccc(F)c(F)c3)nn2)nc1 [Example 599, 2-[[1-(3,4-Difluorophenyl)triazol-4-yl]methoxy]-5-methoxy-pyrimidine]
IC50 [1]: 0.034 µM

Compound: Fc1ccc(-n2cc(COc3ncc(C(F)(F)F)cn3)nn2)cc1Br [Example 44, 2-[[1-(3-Bromo-4-fluoro-phenyl)triazol-4-yl]methoxy]-5-(trifluoromethyl)pyrimidine]
IC50 [2]: 0.005 µM

Compound: Cc1ccccc1-n1cc(COc2ncc(F)cn2)nn1 [Example 237, 5-Fluoro-2-[[1-(o-tolyl)triazol-4-yl]methoxy]pyrimidine]
IC50 [2]: 16.6 µM

Compound: CC(F)(F)c1cc(-n2cc(COc3nccc(C(F)F)n3)nn2)ccc1Cl [Example 536, 2-[[1-[4-Chloro-3-(1,1-difluoroethyl)phenyl]triazol-4-yl]methoxy]-4-(difluoromethyl)pyrimidine]
IC50 [1]: 0.067 µM

IC50 [1]: 0.014 µM
Compound: CC(O)c1cnc(OCc2cn(-c3ccc(F)c(C(C)(F)F)c3)nn2)nc1 (racemic) [Example 586, (R/S)-1-[2-[[1-[3-(1,1-Difluoroethyl)-4-fluoro-phenyl]triazol-4-yl]methoxy]pyrimidin-5-yl]ethanol]

Compound: COCc1cnc(OCc2cn(-c3ccc(F)c(C(F)(F)F)c3)nn2)nc1 [Example 437, 2-[[1-[4-Fluoro-3-(trifluoromethyl)phenyl]triazol-4-yl]methoxy]-5-(methoxymethyl)pyrimidine]
IC50 [1]: 0.071 µM

Compound: Fc1cccc(-n2cc(COc3ncccn3)nn2)c1 [Example 228, 2-[[1-(3-Fluorophenyl)triazol-4-yl]methoxy]pyrimidine]
IC50 [2]: 5.65 µM
